{"source": "PubChem BioAssay AID1259407", "about": "(Chemical Carcinogenesis Research Information System (CCRIS), 2018)", "system": "CCRIS mutagenicity, Ames/micronucleus/aberration tests", "test": "CCRIS mutagenicity studies", "key": {"[1]": {"settings": "Test System: AMES SALMONELLA TYPHIMURIUM, Strain/Indicator: TA98, Metabolic Activation: NONE, Method: PREINCUBATION"}, "[2]": {"settings": "Test System: AMES SALMONELLA TYPHIMURIUM, Strain/Indicator: TA100, Metabolic Activation: NONE, Method: PREINCUBATION"}, "[3]": {"settings": "Test System: AMES SALMONELLA TYPHIMURIUM, Strain/Indicator: TA100, Metabolic Activation: NONE, Method: STANDARD PLATE"}}, "note": "Active and inactive are the calls of the source. The rule behind the calls is not given here.", "data": [{"smiles": "Nc1ncnc2nc(-c3ccc([N+](=O)[O-])cc3)[nH]c12", "values": [{"measurement": "mutagenic call", "setting": "Test System: AMES SALMONELLA TYPHIMURIUM, Strain/Indicator: TA98(1,8-DNP), Metabolic Activation: NONE, Method: PREINCUBATION", "result": "active; positive"}, {"measurement": "mutagenic call", "setting": "Test System: AMES SALMONELLA TYPHIMURIUM, Strain/Indicator: TA98(1,8-DNP), Metabolic Activation: RAT, LIVER, S-9, PCB, Method: PREINCUBATION", "result": "active; positive"}, {"measurement": "mutagenic call", "setting": "Test System: AMES SALMONELLA TYPHIMURIUM, Strain/Indicator: TA98(NR), Metabolic Activation: NONE, Method: PREINCUBATION", "result": "active; positive"}, {"measurement": "mutagenic call", "setting": "Test System: AMES SALMONELLA TYPHIMURIUM, Strain/Indicator: TA98(NR), Metabolic Activation: RAT, LIVER, S-9, PCB, Method: PREINCUBATION", "result": "active; positive"}, {"measurement": "mutagenic call", "setting": "[1]", "result": "active; positive"}, {"measurement": "mutagenic call", "setting": "Test System: AMES SALMONELLA TYPHIMURIUM, Strain/Indicator: TA98, Metabolic Activation: RAT, LIVER, S-9, PCB, Method: PREINCUBATION", "result": "active; positive"}, {"measurement": "mutagenic call", "setting": "Test System: AMES SALMONELLA TYPHIMURIUM, Strain/Indicator: TA100(1,8-DNP), Metabolic Activation: RAT, LIVER, S-9, PCB, Method: PREINCUBATION", "result": "inactive; negative"}, {"measurement": "mutagenic call", "setting": "Test System: AMES SALMONELLA TYPHIMURIUM, Strain/Indicator: TA100(NR), Metabolic Activation: NONE, Method: PREINCUBATION", "result": "inactive; negative"}, {"measurement": "mutagenic call", "setting": "Test System: AMES SALMONELLA TYPHIMURIUM, Strain/Indicator: TA100(NR), Metabolic Activation: RAT, LIVER, S-9, PCB, Method: PREINCUBATION", "result": "inactive; negative"}, {"measurement": "mutagenic call", "setting": "[2]", "result": "active; positive"}, {"measurement": "mutagenic call", "setting": "Test System: AMES SALMONELLA TYPHIMURIUM, Strain/Indicator: TA100, Metabolic Activation: RAT, LIVER, S-9, PCB, Method: PREINCUBATION", "result": "active; positive"}, {"measurement": "mutagenic call", "setting": "Test System: AMES SALMONELLA TYPHIMURIUM, Strain/Indicator: YG1020, Metabolic Activation: NONE, Method: PREINCUBATION", "result": "active; positive"}, {"measurement": "mutagenic call", "setting": "Test System: AMES SALMONELLA TYPHIMURIUM, Strain/Indicator: YG1020, Metabolic Activation: RAT, LIVER, S-9, PCB, Method: PREINCUBATION", "result": "active; positive"}, {"measurement": "mutagenic call", "setting": "Test System: AMES SALMONELLA TYPHIMURIUM, Strain/Indicator: YG1021, Metabolic Activation: NONE, Method: PREINCUBATION", "result": "active; positive"}, {"measurement": "mutagenic call", "setting": "Test System: AMES SALMONELLA TYPHIMURIUM, Strain/Indicator: YG1021, Metabolic Activation: RAT, LIVER, S-9, PCB, Method: PREINCUBATION", "result": "active; positive"}, {"measurement": "mutagenic call", "setting": "Test System: AMES SALMONELLA TYPHIMURIUM, Strain/Indicator: YG1024, Metabolic Activation: NONE, Method: PREINCUBATION", "result": "active; positive"}, {"measurement": "mutagenic call", "setting": "Test System: AMES SALMONELLA TYPHIMURIUM, Strain/Indicator: YG1024, Metabolic Activation: RAT, LIVER, S-9, PCB, Method: PREINCUBATION", "result": "active; positive"}, {"measurement": "mutagenic call", "setting": "Test System: AMES SALMONELLA TYPHIMURIUM, Strain/Indicator: YG1025, Metabolic Activation: NONE, Method: PREINCUBATION", "result": "active; positive"}, {"measurement": "mutagenic call", "setting": "Test System: AMES SALMONELLA TYPHIMURIUM, Strain/Indicator: YG1025, Metabolic Activation: RAT, LIVER, S-9, PCB, Method: PREINCUBATION", "result": "active; positive"}, {"measurement": "mutagenic call", "setting": "Test System: AMES SALMONELLA TYPHIMURIUM, Strain/Indicator: YG1026, Metabolic Activation: NONE, Method: PREINCUBATION", "result": "active; positive"}, {"measurement": "mutagenic call", "setting": "Test System: AMES SALMONELLA TYPHIMURIUM, Strain/Indicator: YG1026, Metabolic Activation: RAT, LIVER, S-9, PCB, Method: PREINCUBATION", "result": "active; positive"}, {"measurement": "mutagenic call", "setting": "Test System: AMES SALMONELLA TYPHIMURIUM, Strain/Indicator: YG1029, Metabolic Activation: NONE, Method: PREINCUBATION", "result": "active; positive"}, {"measurement": "mutagenic call", "setting": "Test System: AMES SALMONELLA TYPHIMURIUM, Strain/Indicator: YG1029, Metabolic Activation: RAT, LIVER, S-9, PCB, Method: PREINCUBATION", "result": "active; positive"}]}, {"smiles": "O=[N+]([O-])c1ccc2sncc2c1", "values": [{"measurement": "mutagenic call", "setting": "[3]", "result": "active; positive"}]}, {"smiles": "CCC1C(=O)O[C@@H]2CCN(C)C/C=C(/COC(=O)[C@](C)(O)[C@H](C)[C@@H]1O)C2=O", "note": "(stereo not given in full)", "values": [{"measurement": "mutagenic call", "setting": "Test System: UDS RAT HEPATOCYTES, Strain/Indicator: THY INCORP, Metabolic Activation: NONE, Method: AUTORADIOGRAPHY", "result": "active; positive"}]}, {"smiles": "CCCCB(CCCC)CCCC", "values": [{"measurement": "mutagenic call", "setting": "Test System: AMES SALMONELLA TYPHIMURIUM, Strain/Indicator: TA98, Metabolic Activation: HAMSTER, LIVER, S-9, AROCLOR 1254, Method: STANDARD PLATE", "result": "active; positive"}, {"measurement": "mutagenic call", "setting": "Test System: AMES SALMONELLA TYPHIMURIUM, Strain/Indicator: TA98, Metabolic Activation: RAT, LIVER, S-9, AROCLOR 1254, Method: STANDARD PLATE", "result": "active; positive"}, {"measurement": "mutagenic call", "setting": "Test System: AMES SALMONELLA TYPHIMURIUM, Strain/Indicator: TA100, Metabolic Activation: HAMSTER, LIVER, S-9, AROCLOR 1254, Method: STANDARD PLATE", "result": "active; positive"}, {"measurement": "mutagenic call", "setting": "Test System: MOUSE LYMPHOMA, Strain/Indicator: L5178Y (TK+/TK-), Metabolic Activation: NONE, Method: SUSPENSION/PLATE", "result": "inactive; negative. reevaluation of results: negative"}, {"measurement": "mutagenic call", "setting": "Test System: MOUSE LYMPHOMA, Strain/Indicator: L5178Y (TK+/TK-), Metabolic Activation: RAT, LIVER, S-9, AROCLOR 1254, Method: SUSPENSION/PLATE", "result": "inactive; negative. reevaluation of results: negative"}]}, {"smiles": "Nc1ccc2ccc3cc4ccccc4c4ccc1c2c34", "values": [{"measurement": "mutagenic call", "setting": "Test System: AMES SALMONELLA TYPHIMURIUM, Strain/Indicator: TA98(1,8-DNP6), Metabolic Activation: NONE", "result": "active; positive"}, {"measurement": "mutagenic call", "setting": "Test System: AMES SALMONELLA TYPHIMURIUM, Strain/Indicator: TA98(1,8-DNP6), Metabolic Activation: RAT, LIVER, S-9, AROCLOR 1254", "result": "active; positive"}, {"measurement": "mutagenic call", "setting": "Test System: AMES SALMONELLA TYPHIMURIUM, Strain/Indicator: TA98(NR), Metabolic Activation: NONE", "result": "active; positive"}, {"measurement": "mutagenic call", "setting": "Test System: AMES SALMONELLA TYPHIMURIUM, Strain/Indicator: TA98(NR), Metabolic Activation: RAT, LIVER, S-9, AROCLOR 1254", "result": "active; positive"}, {"measurement": "mutagenic call", "setting": "Test System: AMES SALMONELLA TYPHIMURIUM, Strain/Indicator: TA98, Metabolic Activation: NONE", "result": "active; positive"}, {"measurement": "mutagenic call", "setting": "Test System: AMES SALMONELLA TYPHIMURIUM, Strain/Indicator: TA98, Metabolic Activation: RAT, LIVER, S-9, AROCLOR 1254", "result": "active; positive"}]}, {"smiles": "COc1ccc(C(=O)N2CCN(c3ccc4c(c3)CCC(=O)N4)CC2)cc1OC", "values": [{"measurement": "mutagenic call", "setting": "Test System: AMES SALMONELLA TYPHIMURIUM, Strain/Indicator: TA97, Metabolic Activation: NONE, Method: STANDARD PLATE", "result": "inactive; negative"}, {"measurement": "mutagenic call", "setting": "Test System: AMES SALMONELLA TYPHIMURIUM, Strain/Indicator: TA97, Metabolic Activation: S-9, Method: STANDARD PLATE", "result": "inactive; negative"}, {"measurement": "mutagenic call", "setting": "[1]", "result": "inactive; negative"}, {"measurement": "mutagenic call", "setting": "Test System: AMES SALMONELLA TYPHIMURIUM, Strain/Indicator: TA98, Metabolic Activation: NONE, Method: STANDARD PLATE", "result": "inactive; negative"}, {"measurement": "mutagenic call", "setting": "Test System: AMES SALMONELLA TYPHIMURIUM, Strain/Indicator: TA98, Metabolic Activation: RAT, LIVER, S-9, Method: PREINCUBATION", "result": "inactive; negative"}, {"measurement": "mutagenic call", "setting": "Test System: AMES SALMONELLA TYPHIMURIUM, Strain/Indicator: TA98, Metabolic Activation: S-9, Method: STANDARD PLATE", "result": "inactive; negative"}, {"measurement": "mutagenic call", "setting": "[2]", "result": "inactive; negative"}, {"measurement": "mutagenic call", "setting": "[3]", "result": "inactive; negative"}, {"measurement": "mutagenic call", "setting": "Test System: AMES SALMONELLA TYPHIMURIUM, Strain/Indicator: TA100, Metabolic Activation: RAT, LIVER, S-9, Method: PREINCUBATION", "result": "inactive; negative"}, {"measurement": "mutagenic call", "setting": "Test System: AMES SALMONELLA TYPHIMURIUM, Strain/Indicator: TA102, Metabolic Activation: NONE, Method: STANDARD PLATE", "result": "inactive; negative"}, {"measurement": "mutagenic call", "setting": "Test System: AMES SALMONELLA TYPHIMURIUM, Strain/Indicator: TA102, Metabolic Activation: S-9, Method: STANDARD PLATE", "result": "inactive; negative"}, {"measurement": "mutagenic call", "setting": "Test System: AMES SALMONELLA TYPHIMURIUM, Strain/Indicator: TA1535, Metabolic Activation: NONE, Method: PREINCUBATION", "result": "inactive; negative"}, {"measurement": "mutagenic call", "setting": "Test System: AMES SALMONELLA TYPHIMURIUM, Strain/Indicator: TA1535, Metabolic Activation: RAT, LIVER, S-9, Method: PREINCUBATION", "result": "inactive; negative"}, {"measurement": "mutagenic call", "setting": "Test System: AMES SALMONELLA TYPHIMURIUM, Strain/Indicator: TA1537, Metabolic Activation: NONE, Method: PREINCUBATION", "result": "inactive; negative"}, {"measurement": "mutagenic call", "setting": "Test System: AMES SALMONELLA TYPHIMURIUM, Strain/Indicator: TA1537, Metabolic Activation: RAT, LIVER, S-9, Method: PREINCUBATION", "result": "inactive; negative"}, {"measurement": "mutagenic call", "setting": "Test System: AMES SALMONELLA TYPHIMURIUM, Strain/Indicator: TA1538, Metabolic Activation: NONE, Method: PREINCUBATION", "result": "inactive; negative"}, {"measurement": "mutagenic call", "setting": "Test System: AMES SALMONELLA TYPHIMURIUM, Strain/Indicator: TA1538, Metabolic Activation: RAT, LIVER, S-9, Method: PREINCUBATION", "result": "inactive; negative"}, {"measurement": "mutagenic call", "setting": "Test System: E. COLI, Strain/Indicator: WP2 UVRA, Metabolic Activation: NONE, Method: PREINCUBATION", "result": "inactive; negative"}, {"measurement": "mutagenic call", "setting": "Test System: E. COLI, Strain/Indicator: WP2 UVRA, Metabolic Activation: RAT, LIVER, S-9, Method: PREINCUBATION", "result": "inactive; negative"}]}]}
